# Source: patent US4835160A, “Derivatives of pyridoindole, having anti-tumor properties” (Sanofi, priority 1986, dated 1989)
# Assays:
# [1] = in vivo; set-up: species or system CDF1 hybrid mice; conditions: mouse, ip, 100 mg/kg
# From the text: The compounds of the invention benefit from a good tolerance and a weak toxicity.
# Thus the administration, to healthy CDF1 hybrid mice, in a single injection by intraperitoneal route, of the compounds under test, has enabled it to be established that the product is perfectly tolerated at a high dosage since the survival rate of the animals of the experiment was 100 out of 100 thirteen days after administration.
# [2] = tested on: leukemia P388; test: Test for leukemia P388, IP/IP, D1; format: in vivo, CDF1 hybrid mice; conditions: for Number of survivors: day D30; for T/C %: survival time
# Procedure, shortened: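 CDF1 hybrid mice inoculated i.p. on D0 with 10^6 P388 leukemia cells; compound in distilled water given i.p. once on D1, 10 mice per group. Activity as increase in survival time versus untreated controls (T/C); survivors counted on D30. 5-fluorouracil positive control under same conditions.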
# [3] = in vivo; set-up: species or system female CDF1 hybrid mice; conditions: mouse, iv
# Procedure: In addition the administration, to healthy female CDF1 hybrid mice, in a single injection by intravenous route with a perfusor, lasting 4 minutes, of the compounds under test in solution in physiological serum at a rate of 0.1 ml of solution per 10 g weight of the animals has enabled it to be established that the compounds are also well tolerated at a high dosage in these conditions.
# [4] = tested on: leukemia P 388; test: Test of leukemia P 388; IP/IP, D1-5; format: in vivo, CDF1 hybrid mice; conditions: D1-D5; for Number of survivors: day D30; for T/C %: survival time
# Procedure, shortened: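 CDF1 hybrid mice received 10^6 P 388 cells intraperitoneally, then compound in distilled water by intraperitoneal route daily D1-D5, 10 mice per group, 5-fluorouracil as positive control. Activity judged as T/C survival time versus untreated controls, survivors counted at D30; T/C ≤85% or day 5 minus day 1 weight change ≤ −4 g counted as toxic.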
# [5] = tested on: melanoma B 16; test: Test for melanoma B 16; format: in vivo, BDF1 hybrid mice; conditions: D1-D9; for Number of survivors: day D60; for T/C %: survival time
# Procedure, shortened: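 BDF1 mice inoculated i.p. with 0.5 ml B16 melanoma homogenate (1 g tumour in 10 ml physiological serum); compound given i.p. daily D1–D9, Cis-platine positive control under same conditions. Surviving animals counted on D60; activity as survival increase vs untreated controls (T/C), toxicity if T/C ≤85%.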
structure (smiles),measurement,setting,value
"Cc1cnc(NCCCN(C)C)c2c1[nH]c1ccc(O)cc12 [Derivative No. 10, 1-(3-dimethylaminopropylamino)-8-hydroxy-4-methyl-5H-pyrido[4,3-b]indole]",survival at 312 h,[1],100%
same,Median day of survival,[2]; 5 mg/kg IP,15.3 days
same,Variation by weight,[2]; 5 mg/kg IP,-0.1 g
same,Number of survivors,[2]; 5 mg/kg IP,0/10
same,T/C %,[2]; 5 mg/kg IP,139%
same,Median day of survival,[2]; 10 mg/kg IP,15.25 days
same,Variation by weight (g),[2]; 10 mg/kg IP,+0.3 g
same,Number of survivors,[2]; 10 mg/kg IP,0/10
same,T/C %,[2]; 10 mg/kg IP,139%
same,Median day of survival,[2]; 20 mg/kg IP,15.6 days
same,Variation by weight,[2]; 20 mg/kg IP,-0.8 g
same,Number of survivors,[2]; 20 mg/kg IP,0/10
same,T/C %,[2]; 20 mg/kg IP,142%
same,Median day of survival,[2]; 40 mg/kg IP,15.3 days
same,Variation by weight,[2]; 40 mg/kg IP,-1.4 g
same,Number of survivors,[2]; 40 mg/kg IP,0/10
same,T/C %,[2]; 40 mg/kg IP,139%
same,survival at 192 h,[3]; 25 mg/kg,100%
same,survival at 192 h,[3]; 40 mg/kg,40%
same,Median day of survival,[4]; 0.625 mg/kg IP,15.75 days
same,Variation by weight (g),[4]; 0.625 mg/kg IP,+4.1 g
same,Number of survivors,[4]; 0.625 mg/kg IP,0/10
same,T/C %,[4]; 0.625 mg/kg IP,139%
same,Median day of survival,[4]; 1.25 mg/kg IP,17.0 days
same,Variation by weight (g),[4]; 1.25 mg/kg IP,+3.3 g
same,Number of survivors,[4]; 1.25 mg/kg IP,0/10
same,T/C %,[4]; 1.25 mg/kg IP,150%
same,Median day of survival,[4]; 2.5 mg/kg IP,16.4 days
same,Variation by weight (g),[4]; 2.5 mg/kg IP,+3.2 g
same,Number of survivors,[4]; 2.5 mg/kg IP,0/10
same,T/C %,[4]; 2.5 mg/kg IP,145%
same,Median day of survival,[4]; 5 mg/kg IP,21.0 days
same,Variation by weight (g),[4]; 5 mg/kg IP,+2.0 g
same,Number of survivors,[4]; 5 mg/kg IP,1/10
same,T/C %,[4]; 5 mg/kg IP,186%
same,Median day of survival,[4]; 10 mg/kg IP,16.75 days
same,Variation by weight (g),[4]; 10 mg/kg IP,+1.8 g
same,Number of survivors,[4]; 10 mg/kg IP,0/10
same,T/C %,[4]; 10 mg/kg IP,148%
same,Median day of survival,[4]; 20 mg/kg IP,7.8 days
same,Variation by weight,[4]; 20 mg/kg IP,-0.4 g
same,Number of survivors,[4]; 20 mg/kg IP,0/10
same,T/C %,[4]; 20 mg/kg IP,69%
same,Median day of survival,[5]; 1.25 mg/kg IP,32.0 days
same,Variation by weight (g),[5]; 1.25 mg/kg IP,+2.8 g
same,Number of survivors,[5]; 1.25 mg/kg IP,0/10
same,T/C %,[5]; 1.25 mg/kg IP,116%
same,Median day of survival,[5]; 2.5 mg/kg IP,38.75 days
same,Variation by weight (g),[5]; 2.5 mg/kg IP,+1.8 g
same,Number of survivors,[5]; 2.5 mg/kg IP,0/10
same,T/C %,[5]; 2.5 mg/kg IP,141%
same,Median day of survival,[5]; 5 mg/kg IP,44.0 days
same,Variation by weight (g),[5]; 5 mg/kg IP,+2.4 g
same,Number of survivors,[5]; 5 mg/kg IP,0/10
same,T/C %,[5]; 5 mg/kg IP,160%
same,Median day of survival,[5]; 10 mg/kg IP,11.7 days
same,Variation by weight (g),[5]; 10 mg/kg IP,+0.5 g
same,Number of survivors,[5]; 10 mg/kg IP,0/10
same,T/C %,[5]; 10 mg/kg IP,42%
